Assay results taken from patent US7189526B2, “Apparatus for culture, process for preparing apparatus for culture, and culturing method” (Kyokuto Pharmaceutical Industrial Co., Ltd., priority 2002, dated 2007).

How the values were obtained:
[1] = tested on: hybridoma KNA14.2; experiment: Inhibition against cell proliferation by aminopterin and its compensation by hypoxantin, amount of LDH of living cells; format: cell-based; conditions: for level of compensation of inhibition against cell proliferation by aminopterin: four days' culture, 1×10^5 cells per ml; for compensation of inhibition against cell proliferation by aminopterin: six days' culture, low hypoxantin concentration [A(+), H(0.1+)]
Protocol: In a medium bottle, 0.2 g of Agarose (Takara, L 03 “TaKaRa”) was suspended in 20 ml of ultrapure water (concentration: 1 w/v %). Then, to dissolve the agarose the suspension was heated at 121° C. for 15 minutes in an autoclave (Tomy Seiko, SS-320). A bottle containing the thus-obtained agarose solution was immersed in a water incubator set at 41° C. and the agarose solution was cooled to be 41° C.
While, 10.4 g of a powdery GIBCO™ Medium RPMI 1640 (INVITROGEN CORPORATION, Cat. No. 31800-014) was dissolved in 500 ml of ultrapure water (concentration: about twice the final concentration). This solution was sterilized by making the solution pass through a nitrocellulose filter membrane having a pore size of 0.2 μm. Thus, 2×RPMI 1640 medium solution was prepared.
To 100 ml of the 2×RPMI 1640 medium solution, 100 ml of heat-inactivated bovine fetal serum was added under a aseptic condition. The thus-obtained heat-inactivated bovine fetal serum/2×RPMI 1640 medium solution was poured into four sterile bottles in an amount of 30 ml per bottle. The sterile bottles were immersed in a water incubator set at 41° C. and the medium solutions therein were heated to be 41° C.
The concentration of aminopterin became twice that in the HAT medium.
The concentrations of hypoxanthine and thymidine became twice those in the HAT medium.
To a medium solution containing aminopterin in another sterile bottle, the HT supplements were added in amounts such that their total volume is one-five hundredth ( 1/500) of the total volume of the medium solution containing aminopterin and the HT supplements. The concentrations of hypoxanthine and thymidine became one-fifth of those in a HAT medium. The sterile bottles were continuously heated at 41° C.
Then, at 41° C., 20 ml of the 1 w/v % agarose solution was mixed with 20 ml of medium solution No. 3 under an aseptic condition. By this, concentrations of the culture medium components of RPMI 1640 medium, heat-inactivated bovine fetal serum, aminopterin, and HT supplements, each of which had been prepared in an concentration of twice the final concentration, became one half of their concentrations in medium solution No. 3.
While, 10 ml of ultrapure water which had been sterilized by filtration was added to 10 ml of medium solution No. 3. […] This solution was used as a control solution.
After the mixed solution was poured into the wells, the culture plate was left cooling down for 60 minutes or more under room temperatures. Thus, the mixed solution was gelatinized. Hereafter, the gelatinized mixed solution will be designated as “an aminoprerin/HT-containing agarose gel.”
In each well the layer of the aminoprerin/HT-containing agarose gel was punched out in its center by using a biopsy punch having a diameter of 6 mm to form a hollow.
Into each of the thus-formed hollows, 0.17 ml of the culture medium solution not containing agarose (i.e., the control solution) was poured.

[2] = tested on: hybridoma KNA14.2; conditions: method of the present invention; three days; 5×10^5 cells per ml; [A(+), H(+)]
Protocol: The cell culture in Example 3 was repeated except that a hybridoma suspension containing hybridoma KNA14.2 in an amount of 5×10^5 per ml was used instead of the hybridoma suspension containing that hybridoma in an amount of 1×10^6 per ml.
Three days after the culture was started, states of cells that were cultured in a RPMI1640 medium solution containing aminopterin and serum ([A(+), H(−)]) and that were cultured in a RPMI1640 medium solution containing aminopterin, HT supplements, and serum ([A(+), H(+)]) were photographed under a microscope (magnification: ×200).
FIGS. 17 and 18 show cells that were cultured in the RPMI1640 medium solution containing aminopterin and serum ([A(+), H(−)]) and cells that were cultured in the RPMI1640 medium solution containing aminopterin, HT supplements, and serum ([A(+), H(+)]), respectively, by the method of the present invention (culture in a hollow that was formed in a gel).

[3] = Diffusion or elution of trypan blue from trypan blue-containing agarose gel to PBS in a hollow; format: physicochemical; conditions: 0.5 w/v % agarose gel, 37° C., absorbance at 550 nm
Protocol: To 5 ml of distilled water, 0.05 g of agarose (Takara, L 03 “TaKaRa”) was suspended (concentration: 1 w/v %). Then, to dissolve the agarose the suspension was heated at 121° C. for 15 minutes in an autoclave (Tomy Seiko, SS-320). A bottle containing the thus-obtained agarose solution was immersed in a water incubator set at 41° C. and the agarose solution was cooled to be 41° C.
While, a 0.3% trypan blue-containing 2×PBS solution (phosphate buffered saline, 2×PBS) was prepared. This solution was sterilized by making the solution pass through a nitrocellulose filter membrane having a pore size of 0.2 μm. A bottle containing the sterilized 0.3% trypan blue-containing 2×PBS solution was immersed in a water incubator set at 41° C. and the solution was heated to be 41° C. […]
At appropriate time intervals, 0.02 ml of the PBS (it seemed that this contained trypan blue) in the hollow that had been made in the center of the gel layer in a well of the culture plate was taken out. […] The absorbance of the diluted PBS was determined at a wave length of 550 nm. The background was determined by using a diluted PBS (concentration: ⅕) containing no trypan blue. The value that was obtained by subtracting the absorbance of the background from that of the PBS that had been taken out from the PBS in the hollow and had diluted was specified as a true absorbance of the diluted PBS. […]

[4] = Diffusion or elution of IL-2 from IL-2-containing agarose gel to culture medium solution in a hollow (ELISA); format: physicochemical; conditions: 37° C.
Protocol: Agarose (Takara, L 03 “TaKaRa”) was added to ultrapure water in a ratio of 1 gram per 100 ml of the water and was suspended (concentration: 1 w/v %). Then, to dissolve the agarose the suspension was heated at 121° C. for 15 minutes in an autoclave (Tomy Seiko, SS-320). A bottle containing the thus-obtained agarose solution was immersed in a water incubator set at 41° C. and the agarose solution was cooled to be 41° C.
While, a powdery GIBCO™ Medium RPMI 1640 (INVITROGEN CORPORATION, Cat. No. 31800-014) (glutamine was contained) was added to ultrapure water in a ratio of 10.4 gram per 500 ml of the water and was dissolved (concentration: about twice the final concentration). This solution was sterilized by making the solution pass through a nitrocellulose filter membrane having a pore size of 0.2 μm. Thus, 2×RPMI 1640 medium solution was prepared.
To 30 ml of this medium solution, 2-mercaptoethanol, penicillin, and streptomycin were added under an aseptic condition in such amounts as to be concentrations of 100 μM, 50 U/ml, and […], respectively. Then, to the thus-obtained solution, 6 ml of heat-inactivated bovine fetal serum was added. To the thus-obtained heat-inactivated bovine fetal serum/2×RPMI 1640 medium solution, interleukin 2 (IL-2, mouse, recombinant, SIGMA I-0523) was added in a ratio of 5 ng per ml of the solution. […]
At appropriate time intervals after the solution was poured into the hollows, from three hollows solutions were taken out in an amount of 0.02 ml per hollow. […] Then, by using mouse IL-2 Elisa Ready-SET-Go! (e-Bioscience, Cat. No. 88-70224-77), IL-2 concentrations of the samples were determined according to the protocol stated in the instruction.
The numerical values of the vertical axis were calculated as follows: After the solutions in the hollows were taken out, the IL-2-containing agarose gel was crushed and a solution was squeezed of the gel. For this solution an IL-2 concentration was determined in the same way as explained above. […]

O=c1[nH]cnc2nc[nH]c12 [hypoxantin, hypoxanthine]
compensation of inhibition against cell proliferation by aminopterin through the salvage pathway ([1]; [A(+), H(0.1+)] and [A(+), H(+)], 1×10^6 cells per ml, two, three and four days, hollows formed in gels): compensated | level of compensation of inhibition against cell proliferation by aminopterin ([1]; conventional method (ninety-six-well culture plate), [A(+), H(0.1+)] and [A(+), H(+)]): about 40% | compensation of inhibition against cell proliferation by aminopterin ([1]; conventional method): scarecely compensated | level of compensation of inhibition against cell proliferation by aminopterin ([1]; method of the present invention (hollow formed in a gel), [A(+), H(0.1+)] and [A(+), H(+)]): about 100% | compensation of inhibition against cell proliferation by aminopterin ([1]; method of the present invention): compensated with hypoxantin in the same level as that in the culture using the hypoxantin in its usual concentration | compensation of inhibition against cell proliferation by aminopterin (cell number and states under microscope) [2]: compensated

Cc1cc(-c2ccc(/N=N/c3c(S(=O)(=O)O)cc4cc(S(=O)(=O)O)cc(N)c4c3O)c(C)c2)ccc1/N=N/c1c(S(=O)(=O)O)cc2cc(S(=O)(=O)O)cc(N)c2c1O [trypan blue]
concentration of trypan blue in PBS in the hollow relative to the equilibrium value ([3]; one hour after incubation started): above 50% | concentration of trypan blue in PBS in the hollow relative to the equilibrium value ([3]; three hours after incubation started): above 80%

B1: IL-2: interleukin 2 (IL-2, mouse, recombinant, SIGMA I-0523) (protein, UniProt P04351 21-169, looked up)
Interleukin-2: APTSSSTSSSTAEAQQQQQQQQQQQQHLEQLLMDLQELLSRMENYRNLKLPRMLTFKFYLPKQATELKDLQCLEDELGPLRHVLDLTQSKSFQLEDAENFISNIRVTVVKLKGSDNTFECQFDDESATVVDFLRRWIAFCQSIISTSPQ
IL-2 concentration of the solution in the hollow relative to the equilibrium value ([4]; forty-eight hours after incubation started): about 70% | IL-2 concentration of the solution in the hollow relative to the equilibrium value ([4]; two hours after incubation started): about 10% | IL-2 concentration of the solution in the hollow relative to the equilibrium value ([4]; within six hours): at least 30%
